Experimental data taken from publication PMC3794980, “Identification of Conserved and HLA Promiscuous DENV3 T-Cell Epitopes” (PLoS Neglected Tropical Diseases, 2013).
Where no end group is shown, it is not given here.

Tests used:
Experiment in all cases: biochemical
Assay type in all cases: binding
[1] = biological target: DRB4*0101 (Homo sapiens, UniProt P01903+P13762, G164S)
[2] = biological target: DRB3*0101 (Homo sapiens, UniProt P01903+P79483)
[3] = biological target: DRB5*0101 (Homo sapiens, UniProt P01903+Q30154)

Compound | IC50 [1] | IC50 [2] | IC50 [3]
VTFKNAHAKKPEVVV [Envelope 236-250] | 6.76 µM | 18.2 µM | 0.03 µM
CC[C@H](C)[C@H](NC(=O)[C@H](CC(C)C)NC(=O)[C@H](CCCCN)NC(=O)CNC(=O)[C@H](CO)NC(=O)[C@@H](NC(=O)[C@@H](NC(=O)[C@@H](NC(=O)[C@@H](NC(=O)[C@H](CCCNC(=N)N)NC(=O)[C@H](CC(C)C)NC(=O)[C@@H](N)CO)[C@@H](C)O)[C@@H](C)O)[C@@H](C)O)C(C)C)C(=O)N[C@@H](Cc1c[nH]cn1)C(=O)N[C@@H](CCC(=O)O)C(=O)N[C@@H](Cc1c[nH]c2ccccc12)C(=O)O [NS1 297-311] | 5.31 µM | 12.4 µM | 2.11 µM
CC(C)C[C@H](N)C(=O)N[C@H](C(=O)N[C@@H](Cc1ccc(O)cc1)C(=O)N[C@@H](CCC(N)=O)C(=O)N[C@@H](CC(N)=O)C(=O)N[C@@H](CCCCN)C(=O)N[C@H](C(=O)N[C@H](C(=O)N[C@@H](CCCCN)C(=O)N[C@H](C(=O)N[C@@H](CCC(N)=O)C(=O)N[C@@H](CCCNC(=N)N)C(=O)N1CCC[C@H]1C(=O)N[C@H](C(=O)N1CCC[C@H]1C(=O)N[C@@H](CCCCN)C(=O)NCC(=O)O)[C@@H](C)O)C(C)C)C(C)C)C(C)C)[C@@H](C)O [NS5 570-586] | 0.013 µM | 4.57 µM | 0.028 µM
MRCVGVGNRDFVEGL [Envelope 1-15] | 3.77 µM | 2.84 µM | 4.83 µM
CC(C)C[C@H](NC(=O)[C@H](CCCNC(=N)N)NC(=O)[C@H](CCCCN)NC(=O)CNC(=O)[C@@H](N)CC(N)=O)C(=O)N[C@@H](CCC(=O)O)C(=O)N1CCC[C@H]1C(=O)N[C@@H](CC(N)=O)C(=O)N[C@@H](Cc1c[nH]c2ccccc12)C(=O)N[C@@H](C)C(=O)N[C@@H](CO)C(=O)N[C@H](C(=O)N[C@@H](CCCCN)C(=O)N[C@@H](CCCCN)C(=O)N[C@@H](CC(=O)O)C(=O)O)C(C)C [NS3 61-75] | 7.03 µM | 1.2 µM | 0.143 µM
CC[C@H](C)[C@H](NC(=O)[C@H](CCC(N)=O)NC(=O)[C@@H](N)CCCCN)C(=O)N[C@@H](C)C(=O)N[C@@H](CC(N)=O)C(=O)N[C@@H](CCC(=O)O)C(=O)N[C@@H](CC(C)C)C(=O)N[C@@H](CC(N)=O)C(=O)N[C@@H](Cc1ccc(O)cc1)C(=O)N[C@H](C(=O)N[C@@H](CC(C)C)C(=O)N[C@@H](Cc1c[nH]c2ccccc12)C(=O)N[C@@H](CCC(=O)O)C(=O)N[C@@H](CC(N)=O)C(=O)N[C@@H](CC(N)=O)C(=O)O)[C@@H](C)CC [NS1 69-83] | 0.608 µM | 0.05 µM | 2.38 µM
CC[C@H](C)[C@H](NC(=O)[C@H](CCSC)NC(=O)[C@H](CC(=O)O)NC(=O)[C@H](CO)NC(=O)[C@H](CCC(=O)O)NC(=O)[C@H](CC(C)C)NC(=O)[C@@H](NC(=O)CNC(=O)[C@H](CC(N)=O)NC(=O)[C@@H](N)CO)C(C)C)C(=O)N[C@H](C(=O)N1CCC[C@H]1C(=O)N[C@@H](CCCCN)C(=O)N[C@@H](CO)C(=O)N[C@@H](CC(C)C)C(=O)O)[C@@H](C)CC [NS1 233-247] | 3.87 µM | 0.159 µM | 4.07 µM
CC[C@H](C)[C@H](NC(=O)CNC(=O)[C@@H](NC(=O)[C@@H](NC(=O)[C@@H](NC(=O)[C@H](CC(N)=O)NC(=O)[C@H](CO)NC(=O)[C@H](CCC(=O)O)NC(=O)CNC(=O)[C@H](Cc1ccccc1)NC(=O)[C@@H]1CCCN1C(=O)[C@@H]1CCCN1C(=O)[C@H](CCC(=O)O)NC(=O)[C@H](C)NC(=O)[C@@H](N)CCC(=O)O)[C@@H](C)CC)C(C)C)[C@@H](C)CC)C(=O)O [Envelope 366-380] | 3.81 µM | 3.24 µM | 12.5 µM
CC[C@H](C)[C@H](NC(=O)[C@@H](N)C(C)C)C(=O)N[C@@H](CC(C)C)C(=O)N[C@H](C(=O)N[C@@H](CC(=O)O)C(=O)NCC(=O)N1CCC[C@H]1C(=O)N[C@@H](CCC(=O)O)C(=O)N[C@@H](CCCNC(=N)N)C(=O)N[C@H](C(=O)N[C@H](C(=O)N[C@@H](CC(C)C)C(=O)N[C@@H](C)C(=O)NCC(=O)N1CCC[C@H]1C(=O)O)[C@@H](C)CC)C(C)C)[C@@H](C)O [NS3 433-447] | 3.51 µM | 0.134 µM | 8.29 µM
CC[C@H](C)[C@H](NC(=O)[C@H](Cc1ccc(O)cc1)NC(=O)CNC(=O)[C@H](CC(C)C)NC(=O)[C@H](CCCCN)NC(=O)[C@H](Cc1c[nH]cn1)NC(=O)[C@@H](N)CC(C)C)C(=O)N[C@@H](CC(C)C)C(=O)N[C@@H](CCCNC(=N)N)C(=O)N[C@@H](CC(=O)O)C(=O)N[C@H](C(=O)N[C@@H](CO)C(=O)N[C@@H](CCCCN)C(=O)N[C@H](C(=O)N1CCC[C@H]1C(=O)NCC(=O)NCC(=O)O)[C@@H](C)CC)[C@@H](C)CC [NS5 511-527] | 0.057 µM | – | 0.611 µM
LKKEVSETQHGTILV [Envelope 306-320] | 7.86 µM | 12.1 µM | 12.6 µM
CC[C@H](C)[C@H](NC(=O)[C@@H](NC(=O)[C@H](CCCNC(=N)N)NC(=O)[C@H](CCC(=O)O)NC(=O)[C@@H]1CCCN1C(=O)CNC(=O)[C@H](CC(=O)O)NC(=O)[C@@H](NC(=O)[C@H](CC(C)C)NC(=O)[C@@H](NC(=O)[C@@H](NC(=O)[C@@H]1CCCN1C(=O)[C@H](CCCCN)NC(=O)[C@H](CC(C)C)NC(=O)[C@@H](N)CS)C(C)C)[C@@H](C)CC)[C@@H](C)O)C(C)C)C(=O)O [NS3 429-443] | 1.21 µM | 0.0057 µM | 13.2 µM
CC[C@H](C)[C@H](NC(=O)[C@@H](N)CCCCN)C(=O)N[C@H](C(=O)N[C@@H](CCC(N)=O)C(=O)N[C@@H](Cc1c[nH]c2ccccc12)C(=O)N[C@@H](CC(C)C)C(=O)N[C@@H](CCC(=O)O)C(=O)N[C@H](C(=O)N[C@@H](CCCCN)C(=O)NCC(=O)N[C@H](C(=O)N[C@@H](CCC(=O)O)C(=O)N[C@@H](CCCNC(=N)N)C(=O)N[C@@H](CC(C)C)C(=O)N[C@@H](CCCCN)C(=O)N[C@@H](CCCNC(=N)N)C(=O)N[C@@H](CCSC)C(=O)O)C(C)C)[C@@H](C)O)[C@@H](C)O [NS5 642-658] | 15.3 µM | 12.2 µM | 0.0051 µM
CC[C@H](C)[C@H](NC(=O)[C@H](CC(C)C)NC(=O)[C@H](CO)NC(=O)CNC(=O)[C@H](CS)NC(=O)[C@H](Cc1c[nH]c2ccccc12)NC(=O)[C@H](CCC(N)=O)NC(=O)[C@H](CC(=O)O)NC(=O)[C@H](CCC(=O)O)NC(=O)[C@H](CCCNC(=N)N)NC(=O)[C@H](CCCCN)NC(=O)CNC(=O)[C@H](CC(C)C)NC(=O)[C@@H](N)Cc1ccc(O)cc1)C(=O)NCC(=O)N[C@@H](CC(C)C)C(=O)N[C@H](C(=O)O)[C@@H](C)O [NS5 838-854] | 1.59 µM | 0.079 µM | 15.5 µM
CC[C@H](C)[C@H](NC(=O)[C@H](CC(C)C)NC(=O)[C@H](CC(=O)O)NC(=O)[C@H](CCCCN)NC(=O)[C@@H](N)CCCCN)C(=O)N[C@@H](CO)C(=O)N[C@@H](Cc1ccc(O)cc1)C(=O)NCC(=O)NCC(=O)NCC(=O)N[C@@H](Cc1c[nH]c2ccccc12)C(=O)N[C@@H](CCCNC(=N)N)C(=O)N[C@@H](CC(C)C)C(=O)N[C@@H](CO)C(=O)N[C@@H](C)C(=O)O [NS3 73-87] | 3.47 µM | – | 0.071 µM
CC[C@H](C)[C@H](NC(=O)[C@H](CC(C)C)NC(=O)[C@H](CCC(=O)O)NC(=O)[C@@H](N)Cc1c[nH]cn1)C(=O)N[C@@H](CCSC)C(=O)N[C@@H](CCCCN)C(=O)N[C@@H](CC(=O)O)C(=O)NCC(=O)N[C@@H](CCCNC(=N)N)C(=O)N[C@@H](CCCCN)C(=O)N[C@@H](CC(C)C)C(=O)N[C@H](C(=O)N[C@H](C(=O)N1CCC[C@H]1C(=O)N[C@@H](CS)C(=O)N[C@@H](CCCNC(=N)N)C(=O)O)C(C)C)C(C)C [NS5 714-729] | 4.02 µM | – | 0.245 µM
CC[C@H](C)[C@H](NC(=O)[C@H](CC(C)C)NC(=O)[C@H](CO)NC(=O)[C@H](C)NC(=O)[C@H](CCCCN)NC(=O)[C@H](CCC(=O)O)NC(=O)[C@H](CC(C)C)NC(=O)[C@H](CCCCN)NC(=O)[C@H](Cc1c[nH]c2ccccc12)NC(=O)[C@@H](N)CO)C(=O)N[C@@H](CCC(=O)O)C(=O)N[C@H](C(=O)N[C@@H](CCCCN)C(=O)N[C@H](C(=O)N[C@@H](CS)C(=O)O)[C@@H](C)O)C(C)C [NS1 209-223] | 5.02 µM | – | 1.18 µM
CC[C@H](C)[C@H](NC(=O)[C@@H]1CCCN1C(=O)[C@H](CCC(=O)O)NC(=O)[C@H](CC(C)C)NC(=O)[C@@H](N)CS)C(=O)N[C@@H](CCC(=O)O)C(=O)NCC(=O)N[C@@H](CCCCN)C(=O)N[C@H](C(=O)N[C@H](C(=O)N[C@@H](CCC(N)=O)C(=O)N[C@@H](Cc1ccc(O)cc1)C(=O)N[C@@H](CCC(=O)O)C(=O)N[C@@H](CC(N)=O)C(=O)N[C@@H](CC(C)C)C(=O)O)C(C)C)C(C)C [Envelope 121-135] | 1.1 µM | – | 13.3 µM
CSCC[C@H](NC(=O)[C@H](Cc1ccc(O)cc1)NC(=O)[C@H](CCCNC(=N)N)NC(=O)[C@H](CC(C)C)NC(=O)[C@@H]1CCCN1C(=O)[C@@H]1CCCN1C(=O)[C@H](CC(C)C)NC(=O)[C@@H](NC(=O)[C@H](CS)NC(=O)[C@H](CO)NC(=O)[C@H](CCCNC(=N)N)NC(=O)[C@@H](N)CS)[C@@H](C)O)C(=O)NCC(=O)N[C@@H](CCC(=O)O)C(=O)N[C@@H](CC(=O)O)C(=O)O [NS1 313-327] | 0.503 µM | – | 2.27 µM
CSCC[C@H](NC(=O)[C@H](C)NC(=O)[C@H](CCSC)NC(=O)[C@H](CCC(N)=O)NC(=O)[C@@H](NC(=O)[C@@H](NC(=O)[C@@H](N)CCSC)C(C)C)[C@@H](C)O)C(=O)N[C@H](C(=O)N[C@@H](CC(=O)O)C(=O)N[C@H](C(=O)N[C@H](C(=O)N1CCC[C@H]1C(=O)N[C@@H](Cc1ccccc1)C(=O)NCC(=O)N[C@@H](CCC(N)=O)C(=O)N[C@@H](CCC(N)=O)C(=O)N[C@@H](CCCNC(=N)N)C(=O)O)[C@@H](C)O)[C@@H](C)O)[C@@H](C)O [NS5 336-352] | 0.747 µM | – | 10.4 µM
